Reference: US20100022629A1, “Dietary Methods and Compositions for Enhancing Metabolism and Reducing Reactive Oxygen Species” (Elixirin, priority 2006, published 2010)

Key:
Fischer 344 male rats = experiment: Morris water maze spatial memory test; assay type: in vivo; settings: fed 7 weeks, 5 per group, SD around 20%
Excerpt: FIG. 1 of 2 depicts measurements of spatial memory in (Fischer 344 male rats) subjected to a water maze test, after treatment with carnitine, lipoic acid, and/or polyphenol. […] The Morris maze task tests spatial memory by requiring rats to find a submerged platform in a pool of water using external visual cues (Morris, R. 1984; J. Neurosci. Methods, 11:47-60; Schenk, F. and Morris, R, Exp. Brain Res. 58:11-28, 1985). The rats in the experimental group (5 each) were fed either 0.5% (wt/vol) acetyl-L-carnitine in water, 1.0% (wt/vol) polyphenol in water; 0.2% (wt/wt) lipoic acid in AIN93M diet, or a combination of the above. Rats were acclimated for one week before experiments. Rats were fed for the above treatment for 7 weeks before tests. Trials (4 consecutive days, 4 trials per day) were conducted and the results averaged. The standard deviation is around 20%. Control rats were fed with water and AIN93M diet only.

[1] = test system: 8-hydroxy-2′-deoxyguanosine/8-hydroxyguanosine; experiment: Oxidation level of DNA in hippocampus sections (anti-8-hydroxy-2′-deoxyguanosine/8-hydroxyguanosine immunocytochemistry); assay type: in vivo, rats; settings: rat hippocampus, fed 7 weeks, mean of 5 animals, SD about 15%
Excerpt: The rats in the experimental group (5 each) were fed either 0.5% (wt/vol) acetyl-L-carnitine in water, 1.0% (wt/vol) polyphenol in water; 0.2% (wt/wt) lipoic acid in AIN93M diet, or a combination of the above. Rats were acclimated for one week before experiments. Rats were fed for the above treatment for 7 weeks before tests. Control rats were fed with water and AIN93M diet only. For assaying DNA oxidation, rats from each treatment group (5 animals per group) was anesthetized with ether and perfused with paraformaldehyde. The brain was removed and postfixed for paraffin sections. Sections of hippocampus were incubated with anti-8-hydroxy-2′-deoxyguanosine/8-hydroxyguanosine and visualized by using standard immunocytochemical methods. Quantification of oxidation was done as described in Liu, J K, et al., (Proc. Natl. Acad. Sci. USA, 99:[…], 2002). Values are a mean of 5 animals. The standard deviation is about 15%.

[2] = test system: men and women diagnosed with a recent MI; settings: 4 grams/day for 12 months plus standard pharmacological treatment; control group 12.5%; cited from earlier work

Compound | mastery of the water maze over no treatment (Fischer 344 male rats) | DNA oxidation level compared with rats having no treatment [1] | mortality after one year of treatment [2]
O=C(O)CCCCC1CCSS1 (centres unmarked) [lipoic acid, 1,2-dithiolane-3-pentanoic acid] | ~79% | ~82% | 
C[N+](C)(C)C[C@H](O)CC(=O)[O-] [L-carnitine] |  |  | 1.2%
C[N+](C)(C)CC(O)CC(=O)[O-] (centres unmarked) [carnitine] | approximately 80% | approximately 112% | 
